Laboratory results from PubChem BioAssay (NCI).
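These data come from cells grown in 96-well plates and exposed to compound for 48 hours at five concentrations. GI50 marks 50% less growth. TGI: concentration producing complete growth inhibition.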

Tests used:
Assay in all cases: NCI anticancer screen, dose series, 48 h
[1] = system: NCI-H460 lung
[2] = system: CAKI-1 renal
[3] = system: RXF 393 renal
[4] = system: HOP-92 NSCLC
[5] = system: PC-3 prostate
[6] = system: LOX IMVI melanoma
[7] = system: A549 NSCLC
[8] = system: A498 renal
[9] = system: DU-145 prostate
[10] = system: SK-MEL-2 melanoma
[11] = system: NCI-H522 lung
[12] = system: BT-549 breast
[13] = system: K-562 leukemia
[14] = system: SF-295 CNS
[15] = system: EKVX NSCLC
[16] = system: COLO 205 colon
[17] = system: HCT-15 colon
[18] = system: HCT-116 colon
[19] = system: U251 CNS
[20] = system: SF-539 CNS
[21] = system: 786-0 renal
[22] = system: TK-10 renal
[23] = system: MDA-MB-435
[24] = system: HCC-2998 colon
[25] = system: IGROV1 ovarian
[26] = system: SNB-75 CNS
[27] = system: KM12 colon
[28] = system: SNB-19 CNS
[29] = system: OVCAR-8 ovarian
[30] = system: OVCAR-3 ovarian
[31] = system: ACHN renal
[32] = system: SK-MEL-5 melanoma
[33] = system: M14 melanoma
[34] = system: T-47D breast
[35] = system: MDA-MB-231 breast
[36] = system: MCF7 breast
[37] = system: NCI/ADR-RES ovarian
[38] = system: CCRF-CEM leukemia
[39] = system: HS 578T breast
[40] = system: HOP-62 NSCLC
[41] = system: MOLT-4 leukemia
[42] = system: SF-268 CNS
[43] = system: MALME-3M melanoma
[44] = system: UACC-62 melanoma
[45] = system: NCI-H23 lung
[46] = system: OVCAR-4 ovarian
[47] = system: OVCAR-5 ovarian
[48] = system: SR leukemia
[49] = system: UO-31 renal
[50] = system: HL-60(TB) leukemia
[51] = system: UACC-257 melanoma
[52] = system: SK-OV-3 ovarian
[53] = system: RPMI-8226 leukemia
[54] = system: NCI-H226 lung
[55] = system: SN12C renal
[56] = system: SK-MEL-28 melanoma
[57] = system: HT29 colon
[58] = system: SW-620 colon

NC1=C(Cl)C(=O)c2ccc(S(N)(=O)=O)cc2C1=O showed a GI50 [1] of 210 nM, a TGI [1] of 487 nM and a GI50 [2] of 820 nM. It also gave a TGI [2] of 2280 nM, a GI50 [3] of 286 nM and a TGI [3] of 903 nM. For the same compound, the GI50 [4] was 2040 nM, the TGI [4] was 3730 nM and the GI50 [5] was 314 nM. The TGI [5] was 1500 nM, the GI50 [6] was 36.7 nM and the TGI [6] was 182 nM. The GI50 [7] was 160 nM, the TGI [7] was 358 nM and the GI50 [8] was 507 nM. For the same compound, the TGI [8] was 1300 nM, the GI50 [9] was 132 nM and the TGI [9] was 273 nM. The GI50 [10] was 192 nM, the TGI [10] was 487 nM and the GI50 [11] was 189 nM. For the same compound, the TGI [11] was 403 nM, the GI50 [12] was 171 nM and the TGI [12] was 314 nM. For the same compound, the GI50 [13] was 313 nM, the TGI [13] was 1210 nM and the GI50 [14] was 143 nM. The TGI [14] was 289 nM, the GI50 [15] was 1530 nM and the TGI [15] was 2910 nM. It also gave a GI50 [16] of 1570 nM, a TGI [16] of 2980 nM and a GI50 [17] of 164 nM. For the same compound, the TGI [17] was 339 nM, the GI50 [18] was 224 nM and the TGI [18] was 602 nM. It also gave a GI50 [19] of 184 nM, a TGI [19] of 871 nM and a GI50 [20] of 200 nM. The TGI [20] was 379 nM, the GI50 [21] was 1820 nM and the TGI [21] was 3240 nM. The GI50 [22] was 1560 nM, the TGI [22] was 2950 nM and the GI50 [23] was 28.8 nM. It also gave a TGI [23] of 74.3 nM, a GI50 [24] of 775 nM and a TGI [24] of 2060 nM. It also gave a GI50 [25] of 681 nM, a TGI [25] of 1570 nM and a GI50 [26] of 144 nM. It also gave a TGI [26] of 293 nM, a GI50 [27] of 332 nM and a TGI [27] of 1060 nM. It also gave a GI50 [28] of 305 nM, a TGI [28] of 1050 nM and a GI50 [29] of 273 nM. It also gave a TGI [29] of 977 nM, a GI50 [30] of 198 nM and a TGI [30] of 454 nM. For the same compound, the GI50 [31] was 263 nM, the TGI [31] was 895 nM and the GI50 [32] was 30.4 nM. For the same compound, the TGI [32] was 96.3 nM, the GI50 [33] was 134 nM and the TGI [33] was 278 nM. The GI50 [34] was 318 nM, the TGI [34] was 1200 nM and the GI50 [35] was 332 nM. The TGI [35] was 2700 nM, the GI50 [36] was 150 nM and the TGI [36] was 346 nM. It also gave a GI50 [37] of 285 nM, a TGI [37] of 4680 nM and a GI50 [38] of 374 nM. It also gave a TGI [38] of 2770 nM, a GI50 [39] of 126 nM and a GI50 [40] of 251 nM. For the same compound, the TGI [40] was 596 nM, the GI50 [41] was 515 nM and the TGI [41] was 3220 nM. The GI50 [42] was 372 nM, the TGI [42] was 1220 nM and the GI50 [43] was 42.6 nM. It also gave a TGI [43] of 137 nM, a GI50 [44] of 135 nM and a TGI [44] of 273 nM. The GI50 [45] was 176 nM, the TGI [45] was 517 nM and the GI50 [46] was 324 nM. It also gave a TGI [46] of 1010 nM, a GI50 [47] of 251 nM and a TGI [47] of 658 nM. It also gave a GI50 [48] of 262 nM, a TGI [48] of 606 nM and a GI50 [49] of 211 nM. For the same compound, the TGI [49] was 564 nM, the GI50 [50] was 366 nM and the TGI [50] was 1180 nM. For the same compound, the GI50 [51] was 128 nM, the TGI [51] was 267 nM and the GI50 [52] was 1670 nM. It also gave a TGI [52] of 3110 nM, a GI50 [53] of 354 nM and a TGI [53] of 2040 nM. For the same compound, the GI50 [54] was 231 nM, the TGI [54] was 595 nM and the GI50 [55] was 172 nM. The TGI [55] was 340 nM, the GI50 [56] was 247 nM and the TGI [56] was 565 nM. It also gave a GI50 [57] of 715 nM, a TGI [57] of 2910 nM and a GI50 [58] of 293 nM. The TGI [58] was 890 nM.
